Measured values as given in PMC8466781, “Evaluation of Synthetic 2,4-Disubstituted-benzo[g]quinoxaline Derivatives as Potential Anticancer Agents” (Pharmaceuticals, 2021).

Key:
[1] = system: breast MCF-7 cancer cell line; experiment: MTT cytotoxicity assay against breast MCF-7 cancer cell line; assay type: cell-based; conditions: Homo sapiens, MCF7, 24 h treatment, mean ± SD, n = 3 experiments, read-out: IC50 (μM) MCF-7, in vitro cytotoxic activity
Procedure: The effect of the prepared benzo[g]quinoxaline derivatives 2–9 on the viability of breast MCF-7 cancer cell line was studied using MTT assay. The cytotoxicity was assessed using Dox as positive reference drug.
Antitumor activity of the newly prepared benzo[g]quinoxaline derivatives 2–9 were carried out against breast MCF-7 cancer cell line using MTT assay method. Cells at density of 1 × 10^4 were seeded in 96-well plate at 37 °C for 48 h under 5% CO2. After incubation, the cells were treated with different concentration of the prepared molecules and incubated for 24 h. MTT dye was added at the end of 24 h of drug treatment and incubated for 4 h at 37 °C. 100 µL of dimethyl sulphoxide was added to each well to dissolve the purple formazan formed. The color intensity of the formazan product, which represents the growth condition of the cells, was quantified using an ELISA plate reader at 570 nm. The experimental conditions were carried out with at least three replicates and the experiments were repeated at least three times.

Bcl2 = experiment: ELISA measurement of Bcl2 level in MCF-7 cells; assay type: cell-based; conditions: MCF-7 cells treated at IC50 (2.89 µM)
Procedure: (§1) In order to investigate the molecular pathway involved in apoptosis, compound 3 was screened for its ability to activate pro-apoptotic protein; Bax and downregulate anti-apoptotic protein; Bcl2 [31]. The MCF-7 cancer cell line was treated with compound 3 at its IC50 value (µM) and the level of expression of proteins involved in apoptosis was quantized using ELISA assay. […] Therefore, it can be concluded that compound 3 can induce the intrinsic pathway of apoptosis by activation of Bax and downregulation of Bcl2.
(§2) The levels of the apoptotic marker Bax, Bcl-2, and Fas/Fas-l were assessed using ELISA kit. The procedure of the used kits was completed according to the manufacturer’s instructions. Briefly, cell lysates were prepared from control and MCF-7 cells (2.5 × 10^5) treated with IC50 concentration of compound 3. Then, equal amounts of cell lysates were loaded then probed with specific antibodies. The samples were measured at 450 nm in ROBONEK P2000 ELISA reader. All experiments were performed in duplicate.
(§3) Figure 6 Effect of compound 3 on apoptosis related proteins, Bax, Bcl2, and Fas/Fas-L in MCF-7 cells. […] Data was expressed as mean ± SD (n = 3 experiments) and statistical comparisons were carried out using one-way analysis of variance (ANOVA) followed by Tukey’s multiple comparison test (*** p < 0.001).

MCF-7 cells [2] = experiment: Annexin V-FITC/PI apoptosis staining assay (flow cytometry); assay type: cell-based; conditions: MCF-7, compound at IC50 concentration, 48 h
Procedure: Apoptosis staining assay was performed to detect the effect of compound 3 on the percentage of early and late apoptosis in the breast MCF-7 cancer cell line. […] Therefore, compound 3 can be considered an apoptosis inducer in the breast MCF-7 cell line.
Apoptosis in MCF-7 cells was investigated using fluorescent Annexin V-FITC/PI detection kit by flow cytometry assay. Briefly, MCF-7 cells (2 × 10^5) after incubation for 12 h. Cells were treated with compound 3 at its IC50 concentration for 48 h, then the cells were harvested and stained with Annexin V-FITC/PI dye for 15 min in the dark at 37 °C. Flow cytometry analyses were performed using FACS Calibur flow cytometer (Becton and Dickinson, Heidelberg, Germany).
Figure 5 (A) Graphical representation of the effect of compound 3 on induction of apoptosis in MCF-7 cell line. (B) Effect of compound 3 on induction of apoptosis in MCF-7 cell line. Data are expressed as the mean ± SD (n = 3 experiments) and statistical comparisons were carried out using one-way analysis of variance (ANOVA) followed by Tukey’s multiple comparison test (** p < 0.01, and *** p < 0.001). […] The Comp 3 values are given in the order upper left, upper right, lower right, with no measure name. / The Control MCF-7 plot prints 1.51%, 0.13% and 0.77%. These are left out because the untreated control is not a substance.

Bax = experiment: ELISA measurement of Bax level in MCF-7 cells; assay type: cell-based; conditions: MCF-7 cells treated at IC50 (2.89 µM)
Procedure: as §1, §2, §3

MCF-7 cells [3] = experiment: Cell cycle analysis by DNA flow cytometry (PI staining); assay type: cell-based; conditions: MCF-7, compound at IC50 (2.89 µM), 48 h; untreated control 2.41%
Procedure: Compound 3 was tested at its IC50 concentration dose value.
MCF-7 cells (2 × 10^5/well) were harvested and washed twice in PBS. After that, cells were incubated at 37 °C and 5% CO2. The medium was replaced with (DMSO 1% v/v) containing the tested compound, then incubated for 48 h, washed twice in PBS, fixed with 70% ethanol, rinsed again with PBS, and then stained with DNA fluorochrome PI for 15 min at 37 °C. DNA content was analyzed by flow cytometry on a FACS Calibur flow cytometer (Becton and Dickinson, Heidelberg, Germany).
Figure 4 (A) Graphical representation of percentages of cells in pre-G1, G1, G2/M, and S cell cycle phase in MCF-7 cells treated with compound 3 (2.89 µM) for 48 h. (B) Effect of compound 3 (2.89 µM) on cell cycle distribution in MCF-7 cells for 48 h and analyzed by flow cytometry after staining with DNA fluorochrome propidium iodide; most of the compound 3 treated cells were in pre-G1 phase (apoptosis). Data are expressed as the mean ± SD (n = 3 experiments) and statistical comparisons were carried out using one-way analysis of variance (ANOVA) followed by Tukey’s multiple comparison test (*** p < 0.001). ***-Highly significant. […]

topoisomerase IIβ = target: T1, topoisomerase IIβ (Homo sapiens, UniProt Q02880); experiment: Topoisomerase IIβ enzyme inhibition assay (Human DNA topo IIβ ELISA Kit # MBS942146); assay type: biochemical
T1 construct: purchased MBS942146
T1 sequence (Q02880 whole entry): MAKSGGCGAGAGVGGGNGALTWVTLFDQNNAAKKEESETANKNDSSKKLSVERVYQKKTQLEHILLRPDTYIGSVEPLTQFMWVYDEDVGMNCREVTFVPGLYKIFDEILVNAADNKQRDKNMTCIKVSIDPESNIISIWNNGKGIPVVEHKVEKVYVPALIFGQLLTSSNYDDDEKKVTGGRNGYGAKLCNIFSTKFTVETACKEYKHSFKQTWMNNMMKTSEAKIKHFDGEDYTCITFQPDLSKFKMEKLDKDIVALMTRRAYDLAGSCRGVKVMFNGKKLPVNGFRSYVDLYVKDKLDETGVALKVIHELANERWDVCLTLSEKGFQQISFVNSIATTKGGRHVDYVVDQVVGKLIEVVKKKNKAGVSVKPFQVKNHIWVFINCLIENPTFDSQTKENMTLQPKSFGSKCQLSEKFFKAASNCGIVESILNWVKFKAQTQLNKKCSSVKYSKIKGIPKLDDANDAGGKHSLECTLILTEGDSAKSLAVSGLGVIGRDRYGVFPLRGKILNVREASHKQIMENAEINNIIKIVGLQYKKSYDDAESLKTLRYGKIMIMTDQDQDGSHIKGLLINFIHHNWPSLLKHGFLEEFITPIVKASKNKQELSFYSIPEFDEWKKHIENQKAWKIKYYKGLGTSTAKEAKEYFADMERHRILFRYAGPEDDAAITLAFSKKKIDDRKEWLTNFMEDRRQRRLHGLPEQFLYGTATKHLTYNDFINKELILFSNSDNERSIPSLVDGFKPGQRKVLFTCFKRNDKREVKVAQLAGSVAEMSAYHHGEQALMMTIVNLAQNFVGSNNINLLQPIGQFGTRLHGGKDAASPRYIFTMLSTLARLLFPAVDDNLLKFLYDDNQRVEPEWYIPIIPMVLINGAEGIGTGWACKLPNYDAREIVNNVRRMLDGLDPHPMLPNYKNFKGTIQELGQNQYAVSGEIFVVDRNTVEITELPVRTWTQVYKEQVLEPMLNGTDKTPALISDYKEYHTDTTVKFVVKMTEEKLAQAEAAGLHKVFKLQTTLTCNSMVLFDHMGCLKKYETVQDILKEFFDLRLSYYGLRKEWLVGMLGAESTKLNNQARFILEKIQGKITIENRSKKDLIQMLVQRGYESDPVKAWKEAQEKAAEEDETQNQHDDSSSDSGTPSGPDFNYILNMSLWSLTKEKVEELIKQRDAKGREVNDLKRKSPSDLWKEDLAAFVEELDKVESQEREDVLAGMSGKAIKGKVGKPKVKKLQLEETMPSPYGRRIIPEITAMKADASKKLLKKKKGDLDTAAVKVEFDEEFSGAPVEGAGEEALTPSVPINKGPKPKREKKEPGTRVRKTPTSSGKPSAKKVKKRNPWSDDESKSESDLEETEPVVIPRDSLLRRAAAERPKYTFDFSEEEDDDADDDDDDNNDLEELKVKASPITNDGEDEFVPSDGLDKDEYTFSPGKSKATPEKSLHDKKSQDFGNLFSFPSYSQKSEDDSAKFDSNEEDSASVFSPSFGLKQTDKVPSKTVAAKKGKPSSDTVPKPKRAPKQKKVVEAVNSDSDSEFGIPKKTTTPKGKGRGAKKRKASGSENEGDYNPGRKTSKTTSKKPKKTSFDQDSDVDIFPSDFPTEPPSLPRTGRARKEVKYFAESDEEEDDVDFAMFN
Procedure: To obtain a further insight into the mechanism of cell proliferation inhibition activity, benzo[g]quinoxaline molecule 3 was investigated for topoisomerase IIβ (topo IIβ) inhibitory activity using the Human DNA topo IIβ ELISA Kit # MBS942146.
Compound 3 and Dox were evaluated against topoisomerase IIβ for their inhibitory concentration (µM) using four doses concentration according to manufacturer’s instructions.
Figure 3 Graphical representation for comparison of topo IIβ IC50 of compound 3 and Dox; topo II was performed using four doses protocol for compound 3 and Dox, and the concentration that induced 50% maximum inhibition of topo II was determined from sigmoidal dose–response. Data are expressed as the mean ± SD (n = 3 experiments) and statistical comparisons were carried out using one-way analysis of variance (ANOVA) followed by Tukey’s multiple comparison test (** p < 0.01). **-Significant.

Clc1ccc(C2=Nc3cc4ccccc4cc3NC2)cc1 [Compound 2, 3-(4-Chlorophenyl)-1,2-dihydrobenzo[g]quinoxaline]
IC50 [1]: 17.2 ± 0.69 µM
melting point: 195 to 197 °C

Clc1ccc(-c2cnc3cc4ccccc4cc3n2)cc1 [Compound 3, 2-(4-Chlorophenyl)benzo[g]quinoxaline]
downregulation of Bcl2 compared with untreated control (Bcl2): 4.35 fold
apoptosis percentage at late stage (upper right quadrant) (MCF-7 cells [2]; untreated control 0.13%): 21.38%
apoptosis percentage at the early stage (lower right quadrant) (MCF-7 cells [2]; untreated control 0.77%): 1.59%
IC50 [1]: 2.89 ± 0.11 µM
melting point: 168 to 170 °C
increase of Bax expression compared with untreated control (Bax): 3.89 fold
percentage of cells at the pre-G1 phase (MCF-7 cells [3]): 38.24%

CC(=O)N1C=C(c2ccc(Cl)cc2)Nc2cc3ccccc3cc21 [Compound 4, 1-(3-(4-Chlorophenyl)benzo[g]quinoxalin-1(4H)-yl)ethanone]
IC50 [1]: 16.2 ± 0.58 µM
melting point: 171 to 173 °C

CCOC(=O)C(C#N)=C(c1ccc(O)c(OC)c1)N1C=C(c2ccc(Cl)cc2)Nc2cc3ccccc3cc21 [Compound 5, Ethyl 3-(3-(4-Chlorophenyl)benzo[g]quinoxalin-1(4H)-yl)-2-cyano-3-(4-hydroxy-3-methoxyphenyl)acrylate]
IC50 [1]: 32.1 ± 1.11 µM
melting point: 146 to 148 °C

Nc1c(NCC(=O)c2ccc(Cl)cc2)c(Br)c2ccccc2c1Br [Compound 8, 2-(3-Amino-1,4-dibromonaphthalen-2-ylamino)-1-(4-chlorophenyl)ethanone]
melting point: 225 to 227 °C

CC(=O)N1CC(c2ccc(Cl)cc2)=Nc2c1c(Br)c1ccccc1c2Br [Compound 9, 1-(5,10-Dibromo-3-(4-chlorophenyl)benzo[g]quinoxalin-1(2H)-yl)ethanone]
IC50 [1]: 8.84 ± 0.36 µM
melting point: 205 to 207 °C

COc1cccc2c1C(=O)c1c(O)c3c(c(O)c1C2=O)C[C@@](O)(C(=O)CO)C[C@@H]3O[C@H]1C[C@H](N)[C@H](O)[C@H](C)O1 [Dox, Doxorubicin, reference compound]
IC50 (topoisomerase IIβ): 3.31 µM
IC50 [1]: 2.01 ± 0.01 µM
